Read-outs that look alike come from different tables or passages of the source.
Key:
[1] = cited from earlier work
[2] = type: physicochemical
Protocol: To evaluate buffers with different pH, Dexamethasone sodium phosphate can be dissolved in an elution media (e.g. one of the different embodiments of the invention disclosed herein). […] This concentration was about 10 times the concentration that might be observed if the drug from the typical device was completely eluted in about 75 mL of media.

[3] = Elution of dexamethasone sodium phosphate from drug coated pace maker leads in conventional media; type: physicochemical; details: e.g. a media that utilizes just a surfactant
From the text: The data disclosed in FIGS. 1-6 provides illustrative embodiments of the methods of invention that examine the elution of dexamethasone sodium phosphate from a polymeric silicone matrix. These examples provide an illustration of the power of the methodological embodiments of the invention, in particular in view of the fact that the elution of dexamethasone sodium phosphate from silicone polymer/drug coated pace maker leads is known to be minimal in conventional solvents. For example, certain elution media and methods may not be ideal for all drugs (e.g. dexamethasone sodium phosphate). For example, dexamethasone sodium phosphate is water soluble whereas typical methodologies described in the art are more suitable for water insoluble or sparingly soluble drugs. […]
While the methodological embodiments of the invention can be used to assess the elution of a wide variety of compounds from a wide variety of matrices, these methods of the invention are particularly useful in the context of the manufacture of drug eluting implantable medical devices. For example, the safety and efficacy of drug coated pace maker leads are readily evaluated using the unique dissolution methods and materials disclosed herein. […]

[4] = cited from earlier work; remark: listed apart in the source

Row | stability with respect to pH (rank order) [2] | elution of the drug in conventional media systems [3] | Compound | solubility in water ([1]; in words) | solubility in water ([1]; in words, listed as dexamethasone sodium phosphate) | elution from silicone polymer/drug coated pace maker leads in conventional solvents [4] | miscibility in alcohols and ether ([1]; alcohols and ether) | solubility in water [1] [g/100 mL]
1 | pH 4>pH 7.5>pH 9 | minimal | C[C@@H]1C[C@H]2[C@@H]3CCC4=CC(=O)C=C[C@]4(C)[C@@]3(F)[C@@H](O)C[C@]2(C)[C@@]1(O)C(=O)COP(=O)(O)O [Dexamethasone sodium phosphate] | freely soluble in water | water soluble | minimal | – | –
2 | – | – | OCc1ccccc1 [Benzyl alcohol, Phenylmethanol] | – | – | – | completely miscible | 4
